Measurements published in US7083667B2, “Colorant compound, ink, ink tank, recording unit, recording apparatus and recording process” (Canon Kabushiki Kaisha, priority 2004, dated 2006).

Test: Determination of solubility in chloroform at room temperature
Type: physicochemical
Conditions: for Solubility in chloroform (in words): nonpolar solvent; for Solubility: in chloroform, room temperature
Procedure: Determination of Solubility
With respect to Colorant Compounds (5) to (16) obtained above, solubility in chloroform at room temperature was determined.

| Solubility in chloroform (in words) | Solubility [% by mass] | Compound |
| --- | --- | --- |
| not dissolved |  | Cc1cccc(C)c1N=c1ccc2c(-c3ccccc3S(=O)(=O)O)c3ccc(Nc4c(C)ccc(S(=O)(=O)[O-])c4C)cc3oc-2c1.[Na+] [C.I. Acid Red 289, reference compound] |
|  | 10.7 | CCOC(=O)c1ccccc1-c1c2cc/c(=N\c3c(C)cccc3C)cc-2oc2cc(Nc3c(C)cccc3C)ccc12.Cl [Compound (5)] |
| higher solubility | 20.5 | CCOC(=O)c1ccccc1-c1c2cc/c(=N\c3c(C)cccc3C)cc-2oc2cc(Nc3c(C)cccc3C)ccc12 [Compound (6)] |
